The source of these data is US20260207535A1, “CRIBLAGE INHIBITEURS USP8” (COMMISSARIAT A L'ENERGIE ATOMIQUE ET AUX ENERGIES …, priority 2022, published 2026).

For one test, the target named is T1, Papain (Carica papaya, UniProt P00784).
T1 construct: purchased Sigma P4762
T1 sequence (P00784 134-345): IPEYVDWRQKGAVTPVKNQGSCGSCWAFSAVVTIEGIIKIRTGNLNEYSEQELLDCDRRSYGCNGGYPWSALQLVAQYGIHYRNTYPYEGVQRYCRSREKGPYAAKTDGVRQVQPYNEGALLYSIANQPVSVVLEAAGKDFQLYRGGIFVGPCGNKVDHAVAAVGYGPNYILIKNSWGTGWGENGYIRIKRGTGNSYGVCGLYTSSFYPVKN
As to the kind of experiment: Papain inhibition (casein digestion, SDS-PAGE). The format is biochemical. How it is done: Papain (Sigma ref. P4762) and casein (Merck ref. VM874644) were dissolved in 40 mM TrisHCl buffers pH6.8 and pH9.5 respectively. Casein at the concentration of 0.5 μg/μl was incubated with the inhibitory compounds at efficient inhibitory concentration or with DMSO for 15 min and then digested by Papain (2.5 ng/μl) at RT over 45 min. The digestion samples were collected at time: 5, 15, 30 and 45 min. To inactivate the protease Laemmli 2× was added and each sample was heated at 95° C. for 5 min then analyzed with SDS-PAGE and stained with Coomassie Blue.

For the next test, the system named is AtT-20 pituitary cells. Briefly: Inhibition of ACTH secretion in pituitary cells (ACTH EIA on supernatant). The class given is cell-based, mouse. As to the method:
ACTH release (percent comparison to DMSO control). Briefly, 12,500 AtT-20 cells per well were seeded in a 96-well plate. After 24 hours exposure, cells were treated with each compound at the indicated final concentration, or with DMSO alone (control condition compound solvent) or with corticotropin releasing factor (indicated CRF) at 100 nM. After a 24-hour treatment, cell supernatants were collected and stored at −80° C., prior to quantification of ACTH concentration using ACTH chemiluminescent EIA kit (Phoenix Pharmaceuticals, Inc.). Determination of ACTH concentrations was based on the best-fitting ACTH standard curve and P values were calculated using one-way ANOVA, using Prism 9 software (GraphPad Software, Inc.) ns (P=0.12). **P<0.002. ***P<0.001. All compounds were tested in technical triplicates. One representative experiment out of three is presented.
FIG. 4: illustrates a decrease of ACTH secretion by AtT-20 cells after 24-hour treatment of halogenated salicylanilides. 12,500 AtT-20 cells per well were seeded in a 96-well plate. […] After a 24-hour treatment, cell supernatants were collected and stored at −80° C., prior to quantification of ACTH concentration using ACTH chemiluminescent EIA kit (Phoenix Pharmaceuticals, Inc.). Determination of ACTH concentrations was based on the best-fitting ACTH standard curve and P values were calculated by ordinary one-way ANOVA using Prism 6 software (GraphPad Software, Inc), ns (not significant), **** P<0.0001. Compounds were tested in technical triplicates.
12,500 AtT-20 cells per well were seeded in a 96-well plate. After 24 hours, cells were treated with compounds (corresponding chemical formula are indicated in Table 1) at 25 μM final concentration, or with DMSO alone (compound solvent). After a 24-hour treatment, cell supernatants were collected and stored at −80° C., prior to quantification of ACTH concentration using ACTH chemiluminescent EIA kit (Phoenix Pharmaceuticals, Inc.). Determination of ACTH concentrations was based on the best-fitting ACTH standard curve and P values were calculated by ordinary one-way ANOVA using Prism 6 software (GraphPad Software, Inc), ns (not significant), *P<0.05, ***P<0,0001. Compounds were tested in technical triplicates.
Mouse AtT-20 pituitary cell line were used as a powerful and well-characterized model to monitor ACTH secretion using an enzyme immunoassay (EIA) kit.
Mouse AtT-20 cells were obtained from the American Type Culture Collection and maintained on DMEM containing 10% fetal bovine serum, 100 μg/mL streptomycin and 100 U/mL penicillin at 37° C. with 5% CO2 after recovery from long-term storage on liquid nitrogen-vapor phase.
The ACTH secretion levels of AtT-20 cell culture was monitored on the supernatant of AtT-20 cells treated or not by increasing doses of compounds belonging to the family of halogenated salicylanilides chemicals.
1.25×10^4 AtT20 cells were seeded on polylysine-coated 96-well culture vessels on 150 μL of complete medium. After 24 hours, cells were treated with stock compounds to a final DMSO concentration of 0.5%. After 24 hours of treatment, cell culture supernatant was collected, cleared for 10 min at 1000×g at 4° C., diluted or not in assay buffer (Phoenix Peptide ACTH EIA EK-001-21) and frozen at −80° C. for subsequent processing according to the instructions of the kit's manufacturer.

Each structure is given as a SMILES string.

Turning to `Cc1cc(C(C#N)c2ccc(Cl)cc2)c(Cl)cc1NC(=O)c1cc(I)cc(I)c1O` (stereo not drawn) [Closantel, reference compound], the activity against papain result at Papain is listed as “not active”. Also, the “reduction in ACTH release” value with AtT-20 pituitary cells (5.62 μM, compared to control) is 20%. Moreover, the “inhibition of ACTH at 25 μM, in words (FIG. 4, FIG. 5)” value in the test on AtT-20 pituitary cells (25 μM, 24-hour treatment) is listed as “significant inhibition”. The ACTH secretion reduction with AtT-20 pituitary cells (30 μM, compared to control conditions) was found to be 60%. Besides, in the test on AtT-20 pituitary cells (Mus musculus, AtT20, 25 μM, 24-hour treatment, AtT-20 supernatant, read-out: ACTH secretion % of control (DMSO) at 25 μM), the activity at 25 µM amounted to 65%. In addition, the “dose-dependent inhibition of ACTH (FIG. 3)” value with AtT-20 pituitary cells (increasing concentrations, 24-hour treatment) is “significant dose-dependent inhibition”.
